According to US20160324981A1, “LIVER X RECEPTOR AGONISTS AND USES THEREOF” (The California Institute for Biomedical Research, priority 2015, published 2016):

T1: LXR-β (Homo sapiens, UniProt P55055)
T1 construct: purchased Life Technologies PV4658
T1 sequence (P55055 222-460 limits assumed): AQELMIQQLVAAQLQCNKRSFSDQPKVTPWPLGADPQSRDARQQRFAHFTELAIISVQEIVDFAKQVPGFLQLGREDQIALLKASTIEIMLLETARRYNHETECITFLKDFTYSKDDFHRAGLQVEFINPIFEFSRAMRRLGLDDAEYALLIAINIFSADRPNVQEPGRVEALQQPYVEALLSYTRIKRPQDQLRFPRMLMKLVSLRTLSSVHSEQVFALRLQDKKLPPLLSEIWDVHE

T2: LXR-α (Homo sapiens, UniProt Q13133)
T2 construct: purchased Life Technologies PV4655
T2 sequence (Q13133 209-447 limits assumed): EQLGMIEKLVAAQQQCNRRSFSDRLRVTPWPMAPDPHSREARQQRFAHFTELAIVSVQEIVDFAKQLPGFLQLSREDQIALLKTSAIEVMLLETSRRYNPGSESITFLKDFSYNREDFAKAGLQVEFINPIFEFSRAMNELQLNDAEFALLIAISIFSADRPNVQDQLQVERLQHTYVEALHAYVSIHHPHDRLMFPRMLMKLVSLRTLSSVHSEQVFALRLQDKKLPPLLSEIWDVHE


How the values were obtained:
LXR-β = target: T1, LXR-β; assay: LanthaScreen TR-FRET LXR beta Coactivator binding assay; conditions: EC50 (AC50) from fitted curve, read-out: binding affinity for LXR-β
LXR-α = target: T2, LXR-α; assay: LanthaScreen TR-FRET LXR alpha Coactivator binding assay; conditions: EC50 (AC50) from fitted curve, read-out: binding affinity for LXR-α
[1] = system: LXR-α transcriptional response element; assay: In vitro LXR transactivation (luciferase reporter) assay in THP-1 cells; assay type: cell-based; conditions: Homo sapiens, 24 hours, read-out: EC50 (LXR agonist activity)
Protocol: (§1) Next, the in vitro activity of the anti-CD11a IgGX-CatB-LXR agonist was evaluated using an LXR-driven luciferase stably incorporated into THP-1 and HepG2 cells. This vector encodes the firefly luciferase reporter gene under the control of a CMV promoter and tandem repeats of the LXR-α transcriptional response element. […] Cells were then treated with ONE-Glo and luminescence was read on an Envision plate reader.
(§2) THP-1 cells and HepG2 cells (ATCC) were seeded at 0.6×10^6 cells/well in Opti-MEM media in a 6-well plate and allowed to incubate overnight at 37° C. Afterwards, 50 μL of Cignal lenti LXR-α luciferase reporter (cat no: CLS-7041L, Qiagen) was added to the wells with gentle mixing. After 48 h, the media was changed to completed growth media that was supplemented with 1 μg/mL puromycin. After 24 h, positively transfected cells were cultured for one week in puromycin-containing media.

[2] = system: LXR-α transcriptional response element; assay: In vitro LXR transactivation (luciferase reporter) assay in HepG2 cells; assay type: cell-based; conditions: 24 hours, presence or absence of 10% human AB serum
Protocol: as §1, §2

[3] = target: T3, CD11a (alpha-chain component of lymphocyte function-associated antigen 1, LFA-1) on human THP-1 … (human, UniProt P20701 26-1170); assay: flow cytometry on THP-1 cells in the presence of Fc block
T3 construct: whole, on cells; Endogenous on THP-1 cells, where it stands with its partner chain in LFA-1; also called LFA-1 alpha chain
Protocol: Cells were incubated either with 2 nM of the dye-conjugated antibodies or with increasing concentrations of antibody (0-50 nM, right) for 1 h at 4° C. in the presence of Fc block (Human Fc block, BD Biosciences).
Because monocytes/macrophages have Fcγ receptors, the binding in the presence of an Fc blocking reagent was also examined (BD biosciences). […] Furthermore, binding of anti-Her2 to THP-1 cells at different concentrations, with or without Fc block treatment was performed (FIG. 9B).

T3 sequence (P20701 26-1170): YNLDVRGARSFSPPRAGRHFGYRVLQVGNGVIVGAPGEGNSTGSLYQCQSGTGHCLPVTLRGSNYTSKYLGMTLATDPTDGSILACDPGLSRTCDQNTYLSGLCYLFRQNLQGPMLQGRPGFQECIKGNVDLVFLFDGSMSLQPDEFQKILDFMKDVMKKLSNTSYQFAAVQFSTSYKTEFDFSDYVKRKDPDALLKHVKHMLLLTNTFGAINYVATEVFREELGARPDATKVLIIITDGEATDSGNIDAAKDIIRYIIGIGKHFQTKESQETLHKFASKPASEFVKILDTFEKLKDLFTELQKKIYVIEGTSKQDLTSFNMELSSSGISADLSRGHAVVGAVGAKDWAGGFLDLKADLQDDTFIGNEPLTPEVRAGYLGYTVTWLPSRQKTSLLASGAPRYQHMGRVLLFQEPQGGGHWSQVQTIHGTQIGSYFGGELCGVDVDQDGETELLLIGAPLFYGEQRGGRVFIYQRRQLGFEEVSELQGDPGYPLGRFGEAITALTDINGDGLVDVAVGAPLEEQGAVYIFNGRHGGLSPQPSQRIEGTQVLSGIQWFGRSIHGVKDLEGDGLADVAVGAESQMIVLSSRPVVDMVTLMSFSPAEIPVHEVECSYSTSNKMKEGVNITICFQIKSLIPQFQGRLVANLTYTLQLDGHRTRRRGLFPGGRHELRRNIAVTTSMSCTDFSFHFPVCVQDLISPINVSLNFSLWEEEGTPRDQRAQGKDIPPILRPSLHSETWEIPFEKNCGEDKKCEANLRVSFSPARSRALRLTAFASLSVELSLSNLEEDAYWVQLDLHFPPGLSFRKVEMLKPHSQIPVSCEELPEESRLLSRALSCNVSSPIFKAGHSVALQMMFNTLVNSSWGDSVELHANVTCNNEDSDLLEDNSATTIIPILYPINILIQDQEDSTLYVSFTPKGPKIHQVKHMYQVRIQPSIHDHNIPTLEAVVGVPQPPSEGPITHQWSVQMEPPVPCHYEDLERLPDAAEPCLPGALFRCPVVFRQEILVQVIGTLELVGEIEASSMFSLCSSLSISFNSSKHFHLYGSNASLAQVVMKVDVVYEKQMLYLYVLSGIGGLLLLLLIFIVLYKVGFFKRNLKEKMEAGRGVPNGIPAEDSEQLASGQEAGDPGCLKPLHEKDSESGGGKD

Row | EC50 (LXR-β) | EC50 (LXR-α) | EC50 [1] | Kd [3] | Molecule | LXR activation in HepG2 cells [2]
1 | 0.5 nM | 1.1 nM | – | – | O=C(O)Cc1cccc(OCCCN(Cc2cccc(C(F)(F)F)c2Cl)CC(c2ccccc2)c2ccccc2)c1 [compound 1, GW3965, reference compound] | –
2 | – | – | 79 ± 1.1 nM | – | O=S(=O)(c1ccccc1)N(CC(F)(F)F)c1ccc(C(O)(C(F)(F)F)C(F)(F)F)cc1 [compound 2, T0901317] | equipotent in these cells relative to THP-1
3 | 12 nM | 1.5 nM | – | – | CCc1cnc2c(C(F)(F)F)cccc2c1-c1cccc(Oc2cccc(S(=O)(=O)N(C)CCN)c2)c1 [compound 3] | –
4 | – | – | – | ~0.5 nM | anti-CD11a A122pAcF IgG conjugated to Alexa Fluor 488 (anti-CD11a IgGX-AF488) (antibody, V domains shown, para-acetylphenylalanine (pAcF) at position A122 (the X in SEQ ID NO 10), oxime-linked to aminooxy-Alexa Fluor 488, Humanized monoclonal anti-CD11a IgG made in CHO cells; The unnatural amino acid pAcF sits at heavy chain position A122; also called anti-CD11a pAcF IgGX) VH: EVQLVESGGGLVQPGGSLRLSCAASGYSFTGHWMNWVRQAPGKGLEWVGMIHPSDSETRYNQKFKDRFTISVDKSKNTLYLQMNSLRAEDTAVYYCARGIYFYGTTYFDYWGQGTLVTVSS VL: DIQMTQSPSSLSASVGDRVTITCRASKTISKYLAWYQQKPGKAPKLLIYSGSTLQSGVPSRFSGSGSGTDFTLTISSLQPEDFATYYCQQHNEYPLTFGQGTKVEIKR | –
